The supplement of paper PMC10307832

How the values were obtained:
Assay in all cases: relative viability (nuclei count vs DMSO), 5 days (fraction); higher = more cells survive
[1] = compound: CC1=CC=C(C=C1)C(=O)CN2C3=C(CCCC3)SC2=N [Pifithrin_alpha] + CS(=O)(=O)N1CCN(Cc2cc3nc(-c4cccc5[nH]ncc45)nc(N4CCOCC4)c3s2)CC1 [Pictilisib] (partner 1 µM)
Outline: (§1)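 Nuclei were stained with Hoechst during a one-step fixation (final 0.05% Triton X-100, 1% formaldehyde, 1 ug/ml Hoechst) carried out 5 days after dosing, then counted on 4× images. The cells, lung cancer lines in 1536-well plates, had been dosed by pin tool the day after seeding with one drug alone or a fixed anchor-drug dose plus five library-drug doses (not always all listed) in √10 steps. Relative viability is the nuclei count in treated wells divided by that in vehicle wells, and each value is the median of duplicate plates.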

Axitinib + Olaparib = compound: CNC(=O)c1ccccc1Sc1ccc2c(/C=C/c3ccccn3)n[nH]c2c1 [Axitinib] + O=C(c1cc(Cc2n[nH]c(=O)c3ccccc23)ccc1F)N1CCN(C(=O)C2CC2)CC1 [Olaparib] (partner 8 µM)
Outline: as §1

Axitinib + Lapatinib = compound: CNC(=O)c1ccccc1Sc1ccc2c(/C=C/c3ccccn3)n[nH]c2c1 [Axitinib] + CS(=O)(=O)CCNCc1ccc(-c2ccc3ncnc(Nc4ccc(OCc5cccc(F)c5)c(Cl)c4)c3c2)o1 [Lapatinib] (partner 2 µM)
Outline: as §1

[2] = compound: CC1=CC=C(C=C1)C(=O)CN2C3=C(CCCC3)SC2=N [Pifithrin_alpha] + CC(=O)c1c(C)c2cnc(Nc3ccc(N4CCNCC4)cn3)nc2n(C2CCCC2)c1=O [Palbociclib] (partner 0.5 µM)
Outline: as §1

| Cell Line | relative viability ([1]; first compound 1 µM) | relative viability ([1]; first compound 3.162 µM) | relative viability ([1]; first compound 10 µM) | relative viability ([1]; first compound 31.62 µM) | relative viability ([1]; first compound 100 µM) | relative viability (Axitinib + Olaparib; first compound 0.005 µM) | relative viability (Axitinib + Olaparib; first compound 0.01581 µM) | relative viability (Axitinib + Olaparib; first compound 0.05 µM) | relative viability (Axitinib + Olaparib; first compound 0.1581 µM) | relative viability (Axitinib + Olaparib; first compound 0.5 µM) | relative viability (Axitinib + Lapatinib; first compound 0.005 µM) | relative viability (Axitinib + Lapatinib; first compound 0.01581 µM) | relative viability (Axitinib + Lapatinib; first compound 0.05 µM) | relative viability (Axitinib + Lapatinib; first compound 0.1581 µM) | relative viability (Axitinib + Lapatinib; first compound 0.5 µM) | relative viability ([2]; first compound 1 µM) | relative viability ([2]; first compound 3.162 µM) | relative viability ([2]; first compound 10 µM) | relative viability ([2]; first compound 100 µM) |
| --- | --- | --- | --- | --- | --- | --- | --- | --- | --- | --- | --- | --- | --- | --- | --- | --- | --- | --- | --- |
| EBC-1 | 0.261 | 0.224 | 0.237 | 0.198 | 0.214 | 0.788 | 0.648 | 0.768 | 0.69 | 0.769 | 0.218 | 0.218 | 0.172 | 0.239 | 0.221 | – | – | – | – |
| Calu-6 | 1 | 0.907 | 0.816 | 0.546 | 0.644 | 0.554 | 0.605 | 0.607 | 0.555 | 0.681 | 1.07 | 1.11 | 1.08 | 1.06 | 1.39 | – | – | – | – |
| NCI-H441 | 0.552 | 0.582 | 0.624 | 0.436 | 0.438 | 0.675 | 0.499 | 0.539 | 0.503 | 0.453 | – | – | – | – | – | 0.203 | 0.249 | 0.217 | 0.19 |
| NCI-H1703 | 0.25 | 0.24 | 0.261 | 0.214 | 0.251 | 0.392 | 0.225 | 0.243 | 0.216 | 0.201 | 0.848 | 0.423 | 0.274 | 0.273 | 0.441 | – | – | – | – |
| NCI-H596 | 0.354 | 0.349 | 0.379 | 0.342 | 0.392 | 0.739 | 0.663 | 0.739 | 0.719 | 0.705 | 1.11 | 0.935 | 1.03 | 0.887 | 1.14 | – | – | – | – |
